Measured values: patent publication EP4635958A1, “PYRIMIDINE-CONTAINING POLYCYCLIC DERIVATIVE INHIBITOR, AND PREPARATION METHOD THEREFOR AND USE THEREOF” (Shanghai Hansoh Biomedical Co., Ltd., priority 2022, dated 2024)
pIC50: −log10 of the molar value.

How the values were obtained:
[1] = tested on: human colorectal cancer cell line (GP2D); assay: Anti-tumor efficacy in mouse transplanted tumor model of human colorectal cancer cell line (GP2D); type: in vivo, mice (BALB/c nude); conditions: 30mpk, PO*BID, Day 14
[2] = rat, plasma
KRAS G12D-SOS1 = biological target: T1, KRAS G12D-SOS1 (Homo sapiens, UniProt P01116, G12D); assay: Blocking of KRAS G12D-SOS1 protein binding (Cisbio KRAS-G12D/SOS1 Binding Assay Kit, time-resolved fluorescence)
T1 construct: purchased Cisbio 63ADK000CB17PEG
Excerpt: • 1. Experimental objective: […] Experimental reagents and instruments The centrifuge (5810R) was purchased from Eppendorf; the pipette was purchased from Eppendorf or Rainin; and the microplate reader was purchased from BioTek (United States) with a model of SynergyH1 multifunctional microplate reader. KRAS-G12D/SOS1 Binding Assay Kit was purchased from Cisbio, with a catalog number of 63ADK000CB17PEG; GTP was purchased from Sigma, with a catalog number of G8877; 384-well plate was purchased from Perkin Elmer, with a catalog number of 6007299. The Diluent buffer in the kit was used to dilute the compound into 10× compound solution of different concentrations, and 2 uL was added to each well of the 384-well plate. Tag2-KRAS G12D protein and GTP were formulated into a mixed solution of 5×KRAS G12D-GTP protein using Diluent buffer, and Tag1-SOS1 protein was formulated into a 5×SOS1 protein solution using Diluent buffer. Each solution was added to the 384-well plate separately at 4 uL per well, and incubated at room temperature for 15 min. A mixed solution of 2× anti-Tag1-Tb^3+ and anti-Tag2-XL665 formulated using detection buffer was added to the 384-well plate at 10 µL per well, and incubated at 4°C in the dark for 3 h.

KRAS WT = KRAS WT (Homo sapiens, UniProt P01116); assay: KRAS WT biochemical assay (Table 1, no method of its own); type: binding
p-ERK in AsPC-1 cells = assay: Inhibition of p-ERK in AsPC-1 cells (LANCE Ultra phospho-ERK1/2 kit); type: cell-based; conditions: Homo sapiens, ASPC1, 2 h with compound, read-out: AsPC-1_pERK IC50
Description: 1. Experimental objective: The inhibition activity of the example compounds on the phosphorylated ERK level in KRAS G12D mutant cells AsPC-1 was determined. 2. Experimental instruments: • 2.1 Instruments: Microplate reader (BioTek Synergy H1); Pipette (Eppendorf & Rainin) • 2.2 Reagents: Phosphorylated ERK1/2 (T202-Y204) LANCE Ultra Cellular Detection Kit was purchased from PerkinElmer, with a catalog number of TRF4000M; DMEM was purchased from Gibco, with a catalog number of 11995065; FBS was purchased from Gibco, with a catalog number of 10091148; PBS was purchased from Gibco, with a catalog number of 10010023; trypsin was purchased from Gibco, with a catalog number of 25200056; cell culture plates were purchased from Corning Company, with a catalog number of 3610; White opaque OptiPlate™-384 plates were purchased from PerkinElmer, with a catalog number of 6007290. 3. Experimental method: When AsPC-1 cells were cultured to appropriate confluence, the AsPC-1 cells were collected, and the cell density was adjusted to 1 × 10^6/mL using complete culture medium. […] The plate was read using BioTek Synergy H1 and the signal values at the emission wavelengths of 620 nm and 665 nm were detected using a time-resolved fluorescence program. […]

KRAS WT, sequence (P01116 1-188 isoform P01116-2): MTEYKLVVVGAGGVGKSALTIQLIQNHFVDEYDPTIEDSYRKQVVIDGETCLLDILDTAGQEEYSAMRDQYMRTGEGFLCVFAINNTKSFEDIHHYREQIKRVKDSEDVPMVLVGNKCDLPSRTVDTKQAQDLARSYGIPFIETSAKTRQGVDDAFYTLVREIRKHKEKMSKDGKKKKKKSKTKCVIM
T1 sequence (P01116 1-188 isoform P01116-2 G12D): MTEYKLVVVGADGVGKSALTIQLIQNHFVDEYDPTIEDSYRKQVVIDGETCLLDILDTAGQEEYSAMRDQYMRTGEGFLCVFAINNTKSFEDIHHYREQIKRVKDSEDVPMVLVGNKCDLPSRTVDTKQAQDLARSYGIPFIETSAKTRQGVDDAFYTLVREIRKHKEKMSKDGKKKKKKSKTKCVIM

## C#Cc1c(F)ccc2cc(O)cc(-c3nc4c5c(nc(OCC6(CN7CCC(=CF)CC7)CC6)nc5c3F)N3C[C@H]5CC[C@H](N5)[C@H]3[C@H](C)O4)c12 [Example 129, 5-ethynyl-6-fluoro-4-((5S,5aS,6S,9R)-1-fluoro-12-((1-((4-(fluoromethylene)piperidin-1-yl)methyl)cyclopropyl)methoxy)-5-methyl-5a,6,7,8,9,10-hexahydro-5H-4-oxa-3,10a,11,13,14-pentaaza-6,9-methylnaphtho[1,8-ab]hept-2-yl)naphthalen-2-ol]
[1]
  Tumor volume (mm^3, Mean ± SD) Day 14: 112 mm^3

## [2H]C([2H])([2H])[C@@H]1Oc2nc(-c3cc(O)cc4ccc(F)c(C#C)c34)c(F)c3nc(OCC4(CN5CCC(=C(F)F)CC5)CC4)nc(c23)N2C[C@H]3CC[C@H](N3)[C@@H]12 [Example 161, 4-((5S,5aS,6S,9R)-12-((1-((4-(difluoromethylene)piperidin-1-yl)methyl)cyclopropyl)methoxy)-1-fluoro-5-(methyl-d3)-5a,6,7,8,9,10-hexahydro-5H-4-oxa-3,10a,11,13,14-pentaaza-6,9-methylnaphtho[1,8-ab]hept-2-yl)-5-ethynyl-6-fluoronaphthalen-2-ol]
[2]; 0 h
  Remaining rate (%) 0 min: 100.00%
[2]; 0.25 h
  Remaining rate (%) 15 min: 94.50%
[2]; 0.5 h
  Remaining rate (%) 30 min: 98.84%
[2]; 1 h
  Remaining rate (%) 60 min: 98.63%
[2]; 2 h
  Remaining rate (%) 120 min: 95.03%
[1]
  Tumor volume (mm^3, Mean ± SD) Day 14: 110 mm^3

## C#Cc1c(F)ccc2cc(O)cc(-c3nc4c5c(nc(OCC6(CN7CCC(=C(F)F)CC7)CC6)nc5c3F)N3C[C@H]5CC[C@H](N5)[C@H]3CO4)c12 [Example 1-1, 4-((5aS,6S,9R)-12-((1-((4-(difluoromethylene)piperidin-1-yl)methyl)cyclopropyl)methoxy)-1-fluoro-5a,6,7,8,9,10-hexahydro-5H-4-oxa-3,10a,11,13,14-pentaaza-6,9-methylenenaphtho[1,8-ab]heptalene-2-yl)-5-ethynyl-6-fluoronaphthalen-2-ol]
KRAS G12D-SOS1
  pIC50: 8.74
KRAS WT
  pIC50: 7.10
p-ERK in AsPC-1 cells
  pIC50: 9.00

## 4-((5S,5aS,6R,9S)-12-((1-((((R)-4-(difluoromethylene)-2-methylpiperidin-1-yl)methyl)cyclopropyl)methoxy)-1-fluoro-5-(methyl-d3)-5a,6,7,8,9,10-hexahydro-5H-4-oxa-3,10a,11,13,14-pentaaza-6,9-methylnaphtho[1,8-ab]hept-2-yl)-5-ethynyl-6-fluoronaphthalen-2-ol [Example 162]
[1]
  Tumor volume (mm^3, Mean ± SD) Day 14: 130 mm^3
